From paper PMC8745223, “Novel 1,3,5-Triazinyl Aminobenzenesulfonamides Incorporating Aminoalcohol, Aminochalcone and Aminostilbene Structural Motifs as Potent Anti-VRE Agents, and Carbonic Anhydrases I, II, VII, IX, and XII Inhibitors” (International Journal of Molecular Sciences, 2021) come the findings set out here.

Structures are written as SMILES. Converted amounts (≈) assume the structure as drawn.

For assay [1], the system named is T1, Enterococcus faecalis VRE 725 B.
T1 construct: VRE 725B (vanA clinical isolate)
The assay is described as follows: organism not typed. Also noted: broth microdilution MIC in BHI, Alamar Blue read-out, 37 °C. The note with it: 24 h. The procedure:
The inhibition activity against enterococci was evaluated by the microtitration broth method according to the Clinical and Laboratory Standards Institute with some modifications. The compounds were dissolved in DMSO and serially diluted in Brain Hearth Infusion (BHI) to reach concentrations 256–2 µg/mL. […] The experiment was repeated at least three times. All the investigated compounds were tested on their anti-staphylococcal activity against three clinical isolates of methicillin-resistant Staphylococcus aureus (MRSA) and S. aureus ATCC 29213 as the reference and quality control strain. […] All the compounds were tested against Enterococcus faecalis ATCC 29212 as the reference strain and three isolates from American crows of vanA-carrying vancomycin-resistant E. faecalis (VRE), and the activities, expressed as minimum inhibitory concentrations (MICs), are listed in Table 3.

Assay [2] deals with T2, Enterococcus faecalis VRE 342 B.
T2 construct: VRE 342 B (vanA clinical isolate)
The assay can be described thus: organism not typed. Also noted: broth microdilution MIC in BHI, Alamar Blue read-out, 37 °C. The note with it: 24 h. How it is done: (§1) The inhibition activity against enterococci was evaluated by the microtitration broth method according to the Clinical and Laboratory Standards Institute with some modifications. The compounds were dissolved in DMSO and serially diluted in Brain Hearth Infusion (BHI) to reach concentrations 256–2 µg/mL. […] The experiment was repeated at least three times. All the investigated compounds were tested on their anti-staphylococcal activity against three clinical isolates of methicillin-resistant Staphylococcus aureus (MRSA) and S. aureus ATCC 29213 as the reference and quality control strain.

Assay [3] relates to T3, Enterococcus faecalis VRE 368.
T3 construct: VRE 368 (vanA clinical isolate)
The assay can be described thus: organism not typed. Particulars: 24 h. Also noted: broth microdilution MIC in BHI, Alamar Blue read-out, 37 °C. The procedure: as §1

The test system of assay [4] is T4, E. faecalis ATCC 29212 (EF).
T4 construct: ATCC 29212
The assay can be described thus: microbe, parasite or virus in culture. Set-up: broth microdilution MIC in BHI, Alamar Blue read-out, 37 °C. Particulars: Enterococcus faecalis, ATCC29212, 24 h. The procedure: as §1

The target of the next assay is T5, hCA IX (Homo sapiens, UniProt Q16790).
T5 construct: gene CA9; recombinant
The assay can be described thus: stopped-flow CO2 hydration assay. The format is biochemical. In outline: (§2)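 Recombinant human carbonic anhydrase CO2 hydration was followed by stopped-flow for 10–100 s with 0.2 mM phenol red (557 nm), 20 mM Hepes pH 7.5, 20 mM Na2SO4 and 1.7–17 mM CO2. Enzyme and inhibitor (diluted to 0.005 nM in buffer) were preincubated 15 min at room temperature. Initial rates used at least six traces, with uncatalysed rates subtracted. Ki was fitted by non-linear least squares with Cheng–Prusoff equation, averaged over three or more determinations.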

For the next assay, the target named is T6, hCA I (Homo sapiens, UniProt P00915).
T6 construct: gene CA1; recombinant
The assay can be described thus: stopped-flow CO2 hydration assay. It is filed as biochemical. In outline: as §2

Another assay concerns the target T7, hCA II (Homo sapiens, UniProt P00918).
T7 construct: gene CA2; recombinant
The assay can be described thus: stopped-flow CO2 hydration assay. The format is biochemical. In outline: as §2

In the next assay the target is T8, hCA XII (Homo sapiens, UniProt O43570).
T8 construct: gene CA12; recombinant
The assay can be described thus: stopped-flow CO2 hydration assay. It is filed as biochemical. In a few lines: as §2

T8 sequence (O43570 25-354): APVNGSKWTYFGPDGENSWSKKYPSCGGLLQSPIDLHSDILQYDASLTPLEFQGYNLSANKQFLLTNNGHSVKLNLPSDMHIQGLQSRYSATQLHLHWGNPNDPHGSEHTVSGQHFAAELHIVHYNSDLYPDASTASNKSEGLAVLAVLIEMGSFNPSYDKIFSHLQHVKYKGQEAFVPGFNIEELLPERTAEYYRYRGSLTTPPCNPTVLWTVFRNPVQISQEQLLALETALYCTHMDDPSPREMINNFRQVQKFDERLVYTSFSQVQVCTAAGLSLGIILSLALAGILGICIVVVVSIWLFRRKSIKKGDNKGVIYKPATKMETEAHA
T6 sequence (P00915 2-261): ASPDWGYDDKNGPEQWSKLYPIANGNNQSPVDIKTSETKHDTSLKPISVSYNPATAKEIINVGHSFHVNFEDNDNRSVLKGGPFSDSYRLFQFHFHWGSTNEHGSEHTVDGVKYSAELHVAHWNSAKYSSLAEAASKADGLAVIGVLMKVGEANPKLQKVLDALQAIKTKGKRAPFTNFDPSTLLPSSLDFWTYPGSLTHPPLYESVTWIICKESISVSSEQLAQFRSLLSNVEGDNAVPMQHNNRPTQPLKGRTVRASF

`NS(=O)(=O)c1ccc(CNc2nc(Cl)nc(NCc3ccc(S(N)(=O)=O)cc3)n2)cc1` [7 ^a]: the MIC was found to be 131 µM (≈ 63.4 µg/mL) in assay [1], 66 µM (≈ 31.9 µg/mL) in assay [2], 33 µM (≈ 16 µg/mL) in assay [3] and 16.5 µM (≈ 7.98 µg/mL) in assay [4].

As to `CC1(C)S[C@@H]2[C@H](NC(=O)[C@H](N)c3ccccc3)C(=O)N2[C@H]1C(=O)O` [ampicillin], the “MIC [µM] / VRE 725 B” value in assay [1] (inhibitor) came to 5.72 µM (≈ 2 µg/mL).

Broadly, the Ki is a measure of affinity in units of concentration, obtained from inhibition or displacement. The low end stands for tighter binding, the high end for weaker binding. Consider `NS(=O)(=O)c1ccc(Nc2nc(NCCCO)nc(Nc3ccc(/C=C/c4cccc(O)c4)cc3)n2)cc1` [compound 4, (E)-4-({4-[(3-Hydroxypropyl)amino]-6-{[4-(3-hydroxystyryl)phenyl]amino}-1,3,5-triazin-2-yl}amino)benzenesulfonamide], for which the inhibition constant (Ki) is 27.5 nM at hCA IX, 7520 nM at hCA I, 3640 nM at hCA II and 65.8 nM at hCA XII.

Consider `NS(=O)(=O)c1ccc(CNc2nc(NCCCO)nc(Nc3ccc(/C=C/c4cccc(O)c4)cc3)n2)cc1` [compound 17, 17], for which the Ki on hCA IX amounted to 22.2 nM; on hCA I it was 358 nM; on hCA II it was 46.8 nM; on hCA XII, 493 nM. In addition, the MIC is above 467 µM in assay [1], above 467 µM in assay [2], 467 µM (≈ 256 µg/mL) in assay [3] and above 467 µM in assay [4].

On to `NS(=O)(=O)c1ccc(CCNc2nc(NCCCO)nc(Nc3ccc(/C=C/c4ccccc4)cc3)n2)cc1` [compound 30, (E)-4-[2-({4-[(3-Hydroxypropyl)amino]-6-[(4-styrylphenyl)amino]-1,3,5-triazin-2-yl}amino)ethyl]benzenesulfonamide], for which the Ki at hCA IX amounted to 12.1 nM; on hCA I it was 5700 nM; at hCA II it was 5130 nM; on hCA XII it was 7.6 nM. Further, the MIC in assay [1], in assay [2], in assay [3] and in assay [4] was above 469 µM each time.

For the molecule `NS(=O)(=O)c1ccc(CCNc2nc(NCC(O)CO)nc(Nc3ccc(/C=C/c4ccccc4)cc3)n2)cc1` (stereo not shown) [compound 31, (E)-4-{2-[(4-[(2,3-Dihydroxypropyl)amino]-6-[(4-styrylphenyl)amino]-1,3,5-triazin-2-yl)amino]ethyl}benzenesulfonamide], the Ki on hCA IX was 248 nM; on hCA I, 36.9 nM; at hCA II it was 335 nM; on hCA XII it was 4.4 nM. Besides, the MIC in assay [1], in assay [2], in assay [3] and in assay [4] was above 455 µM each time.

`NS(=O)(=O)c1ccc(CCNc2nc(Nc3ccc(O)cc3)nc(Nc3ccc(/C=C/c4ccccc4)cc3)n2)cc1` [compound 32, (E)-4-{2-[(4-[(4-Hydroxyphenyl)amino]-6-[(4-styrylphenyl)amino]-1,3,5-triazin-2-yl)amino]ethyl}benzenesulfonamide]: the Ki on hCA IX was 2470 nM; on hCA I, 90.6 nM; on hCA II, 7490 nM; on hCA XII it was 5.9 nM. Further, the MIC in assay [1] turned out to be 55.2 µM (≈ 32 µg/mL); in assay [2] it was 27.6 µM (≈ 16 µg/mL); in assay [3] it was 27.6 µM (≈ 16 µg/mL); in assay [4], 13.8 µM (≈ 8 µg/mL).

In the case of `NS(=O)(=O)c1ccc(CCNc2nc(NCc3ccc(S(N)(=O)=O)cc3)nc(Nc3ccc(/C=C/c4ccccc4)cc3)n2)cc1` [compound 33], the Ki was 1970 nM on hCA IX, 48 nM at hCA I, 57.9 nM at hCA II and 6.2 nM at hCA XII. Besides, the MIC in assay [1] worked out at 194 µM (≈ 127 µg/mL); in assay [2] it was 194 µM (≈ 127 µg/mL); in assay [3] it was 389 µM (≈ 255 µg/mL); in assay [4], 97.4 µM (≈ 64 µg/mL).

Take `NS(=O)(=O)c1ccc(CCNc2nc(NCC(O)CO)nc(Nc3ccc(/C=C/c4ccccc4O)cc3)n2)cc1` (stereo not shown) [compound 34, (E)-4-{2-[(4-[(2,3-Dihydroxypropyl)amino]-6-{[4-(2-hydroxystyryl)phenyl]amino}-1,3,5-triazin-2-yl)amino]ethyl}benzenesulfonamide]: the inhibition constant Ki worked out at 2710 nM at hCA IX, 1670 nM on hCA I, 5630 nM on hCA II and 8.5 nM on hCA XII. Further, the MIC in assay [1], in assay [2], in assay [3] and in assay [4] was above 443 µM throughout.

Take `NS(=O)(=O)c1ccc(CCNc2nc(Nc3ccc(O)cc3)nc(Nc3ccc(/C=C/c4ccccc4O)cc3)n2)cc1` [compound 35, 35]: the inhibition constant Ki was 238 nM at hCA IX, 3940 nM on hCA I, 5470 nM at hCA II and 37.1 nM on hCA XII. Moreover, the MIC in assay [1], in assay [2], in assay [3] and in assay [4] was above 429 µM throughout.

For `NS(=O)(=O)c1ccc(CCNc2nc(NCc3ccc(S(N)(=O)=O)cc3)nc(Nc3ccc(/C=C/c4ccccc4O)cc3)n2)cc1` [compound 36, (E)-4-{2-[(4-{[4-(2-Hydroxystyryl)phenyl]amino}-6-[(4-sulfamoylbenzyl)amino]-1,3,5-triazin-2-yl)amino]ethyl}benzenesulfonamide], the inhibition constant Ki on hCA IX came to 2720 nM; on hCA I, 448 nM; at hCA II, 82 nM; on hCA XII, 8.3 nM. In addition, the MIC in assay [1], in assay [2], in assay [3] and in assay [4] was above 380 µM in each case.

For the molecule `NS(=O)(=O)c1ccc(CCNc2nc(NCCCO)nc(Nc3ccc(/C=C/c4cccc(O)c4)cc3)n2)cc1` [compound 37, 37], the Ki at hCA IX is 26.4 nM; at hCA I, 675 nM; at hCA II, 73.5 nM; at hCA XII it was 601 nM. For the same molecule, the MIC in assay [1], in assay [2], in assay [3] and in assay [4] was above 455 µM each time.

`NS(=O)(=O)c1ccc(CCNc2nc(NCC(O)CO)nc(Nc3ccc(/C=C/c4cccc(O)c4)cc3)n2)cc1` (stereo not shown) [compound 38, (E)-4-{2-[(4-[(2,3-Dihydroxypropyl)amino]-6-{[4-(3-hydroxystyryl)phenyl]amino}-1,3,5-triazin-2-yl)amino]ethyl}benzenesulfonamide]: the Ki on hCA IX was found to be 17.3 nM; at hCA I, 6730 nM; on hCA II, 4440 nM; at hCA XII it was 84.5 nM. Also, the MIC in assay [1], in assay [2], in assay [3] and in assay [4] was above 443 µM each time.

As to `NS(=O)(=O)c1ccc(CCNc2nc(Nc3ccc(O)cc3)nc(Nc3ccc(/C=C/c4cccc(O)c4)cc3)n2)cc1` [compound 39, 39], the Ki is 876 nM on hCA IX, 742 nM on hCA I, 154 nM on hCA II and 68.5 nM on hCA XII. The MIC in assay [1], in assay [2], in assay [3] and in assay [4] was above 429 µM each time.

Regarding `CN[C@H](CC(C)C)C(=O)N[C@H]1C(=O)N[C@@H](CC(N)=O)C(=O)N[C@H]2C(=O)N[C@H]3C(=O)N[C@H](C(=O)N[C@H](C(=O)O)c4cc(O)cc(O)c4-c4cc3ccc4O)[C@H](O)c3ccc(c(Cl)c3)Oc3cc2cc(c3O[C@@H]2O[C@H](CO)[C@@H](O)[C@H](O)[C@H]2O[C@H]2C[C@](C)(N)[C@H](O)[C@H](C)O2)Oc2ccc(cc2Cl)[C@H]1O` [vancomycin], the MIC in assay [1] amounted to 706 µM (≈ 1020 µg/mL); in assay [2] it was 353 µM (≈ 512 µg/mL); in assay [3], 353 µM (≈ 512 µg/mL).
